Measurements: patent publication US12692471B2, “High aspect ratio devices and methods for vitrification of biological samples by rapid cooling” (The General Hospital Corporation, priority 2020, dated 2026)

Experiments:
C. parvum oocysts [1] = assay: Oocyst viability by propidium iodide (PI) exclusion, flow cytometry; format: cell-based, Cryptosporidium parvum; details: for viability (PI exclusion): pre-freeze, 50% DMSO, 20% bleach condition
Procedure: To increase the intracellular concentration of CPA, oocysts were bleached with various concentrations of bleach-5% or 20% and then incubated with CPA cocktails consisting of trehalose (Sigma) and DMSO (Sigma) at different concentrations. Briefly, bleached oocysts were first dehydrated in 1.6 M or 1 M trehalose solution for 10 min and then incubated for another 5-15 min with DMSO achieving its final concentration of 30% or 50% (ambient conditions were used throughout). The DMSO/trehalose cocktail was then diluted by incubation with excess PBS (at ratio 1:100) for 30 min at room temperature and removed by centrifugation (18,000×g, 2 min). Cytotoxicity attributable to the CPA cocktail was measured by inclusion of PI (Sigma) at 10 μg/mL using flow cytometry (ACCURI® C6, BD Life Sciences) and was normalized to its control in PBS for each condition.
In an effort to maximize the concentration of intracellular and extracellular CPA without compromising oocyst viability, oocysts were gradually exposed to higher concentrations of DMSO by two-step addition. Here, 6-week-old bleached oocysts (5% or 20%) were first dehydrated in 1.6 M trehalose for 10 min. DMSO was added to achieve 0.8 M trehalose/30% DMSO solution and incubated for 5 min. The second addition of DMSO led to a final concentration of 0.5 M trehalose/50% DMSO and was incubated for 1 min. CPA cocktail was then diluted as described above. Cytotoxicity attributable to CPA cocktail was measured by inclusion of PI and was normalized to the untreated oocyst control in PBS.
(§1) Bleached (20%) C. parvum oocysts at 1-2, 6 and 12 weeks of age were cryopreserved as described above using a two-step DMSO addition protocol, such that final concentration of 0.5 M trehalose/50% DMSO was achieved. […] Pre-freeze and post-freeze oocyst viability was measured by PI exclusion at 10 μg/mL using flow cytometry and by an in vitro infectivity assay. […]
For evaluation of cryopreservation in insemination straws and cryovials, pre-freeze and post-freeze viability was measured only by PI exclusion as described above.

C. parvum oocysts [2] = assay: In vitro infectivity of oocysts in MDBK cells; format: cell-based, Cryptosporidium parvum
Procedure: All CPA cocktails described in FIG. 2A were further tested for infectivity in the in vitro model of epithelial cell infection using MDBK cells. Twenty thousand cells were seeded into each well of a 96-well culturing plate (Falcon) and maintained for two days to reach confluence (defined at 4×10^4/well). Oocysts were prepared for infection by bleaching and incubation with CPA cocktail as described above. After removal of diluted CPA in excess PBS, the oocyst pellet was resuspended in 50 μL of 0.75% sodium taurocholate (Sigma) and incubated at 37° C. for 15 min to prompt excystation. Pre-excysted oocysts were then added onto confluent cell monolayers at MOI 1:3. After 24-h co-incubation of parasite with cell monolayer, cultures were washed with PBS to remove extracellular stages of parasite, permeabilized with 100% methanol for 10 min at room temperature and then washed again with PBS. After fixation, cells were blocked with 10% FBS for 30 min and then incubated with fluorescein-labeled Vicia villosa lectin (Vector Laboratories) at concentration […] for 30 min to visualize intracellular stages of the parasite. After the final wash with PBS, monolayers were inspected with a Nikon ECLIPSE® Ti-E microscope (Nikon Instruments Inc.). Four images were taken of each well at 200× magnification using a FITC filter at 100 ms exposure. The number of fluorescing infection foci was then counted by ImageJ 1.48v particle analyzer using the following settings: triangle threshold 15-255, size exclusion at 10-1,000 pixel^2 and circularity at 0.1-1.0. Results depicted in FIG. 2B are expressed as percent infectivity of the control oocysts, which were treated with PBS in place of CPA.
as §1

IFN-γ knockout mice = assay: In vivo infectivity of cryopreserved oocysts
Procedure: C. parvum oocysts at 2, 6 and 12 weeks of age were bleached (20%) and cryopreserved in the vitrification cassettes as described above using a two-step DMSO addition protocol with final concentration of 0.5 M trehalose/50% DMSO. Infectivity of cryopreserved oocysts was evaluated in 8-week-old female IFN-γ knockout mice bred under pathogen-free conditions (Jackson Laboratory, Bar Harbor, ME, USA). All mice experiments were conducted in an AAALAC accredited institution in compliance with the study protocol No. G2017-107 approved by the Tufts University Institutional Animal Care and Use Committee in accordance with the Guide for the Care and Use of Laboratory Animals (National Research Council). Mice were randomly assigned into groups of three by a blinded animal caretaker, however the investigators were not blinded during this experiment.
The animal care, inoculation and monitoring procedures were performed as described elsewhere (Jaskiewicz et al., Cryopreservation of infectious Cryptosporidium parvum oocysts. Nat. Commun. 9, 2883 (2018)), with modifications. Mice were immunosuppressed throughout the course of the experiment by administration of dexamethasone in drinking water at concentration 10 mg/L. Three days after immunosuppressive treatment started, each mouse received 30,000 PI^− cryopreserved oocysts in PBS suspension by oral gavage. […] Mice negative for signs of infection were monitored until 11 DPI. Intensity of fecal shedding was measured daily by inspection of the acid-fast stained fecal smear slides, prepared from a single fecal pellet of approximately equal size, for presence of oocysts in 30 fields (1000×).
The animal experiments which produced negative cryopreservation outcome were performed as described above with exception of few procedural details. A summary table describing the different cryopreservation methods evaluated and the corresponding outcome can be found in Table 1. […]

[3] = 30% DMSO 5 min then 50% DMSO 1 min, compared with one-step at same overall concentration

In the case of C[S+](C)[O-] [DMSO, dimethyl sulfoxide], the “pre-freeze viability, two-step vs one-step DMSO addition” value (C. parvum oocysts [1]; [3]) is reported as “significantly increased”, the “viability (PI exclusion)” value (C. parvum oocysts [1]; 5 min incubation) is reported as 59.4±2.3% and the “viability (PI exclusion)” value (C. parvum oocysts [1]; after 15 min or longer) is reported as 17.5±5.0%. For the same compound, the “pre-freeze infectivity in vitro, two-step vs one-step DMSO addition” value (C. parvum oocysts [2]; [3]) was “significantly increased”, the in vitro infectivity (C. parvum oocysts [2]; pre-freeze, 50% DMSO, 5 min incubation, 20% bleach condition, percent of control oocysts in PBS) was 38.7±17.0% and the “infectivity (in vitro)” value (C. parvum oocysts [2]; pre-freeze, 50% DMSO, after 15 min or longer, 20% bleach condition) was 6.4±1.9%. The “Infectivity in animals after thawing” value (IFN-γ knockout mice; Rectangular capillary, 2 weeks oocysts, trehalose 1.6M/0.8M, One-step 50% DMSO, 5 min, dose 10,000) was “No”, the “Infectivity in animals after thawing” value (IFN-γ knockout mice; Vitrification cassette, 2-12 weeks oocysts, trehalose 1.6M/0.5M, Two-step 30% DMSO/50% DMSO, 5 min/1 min, dose 30,000) was “Yes” and the “Infectivity in animals after thawing” value (IFN-γ knockout mice; Vitrification cassette, 6 weeks oocysts, trehalose 1.6M/0.8M, One-step 50% DMSO, 5 min, dose 10,000) was “No”.
